The text below walks through data of patent publication US7923446B2, “Biaryl sulfonamides and methods for using same” (Wyeth LLC, priority 2003, dated 2011).

This test addresses T1, purified full-length human recombinant aggrecanase-1 (rAgg1) (Homo sapiens, UniProt O75173).
T1 construct: purified full-length human recombinant aggrecanase-1
T1 sequence (O75173 213-837): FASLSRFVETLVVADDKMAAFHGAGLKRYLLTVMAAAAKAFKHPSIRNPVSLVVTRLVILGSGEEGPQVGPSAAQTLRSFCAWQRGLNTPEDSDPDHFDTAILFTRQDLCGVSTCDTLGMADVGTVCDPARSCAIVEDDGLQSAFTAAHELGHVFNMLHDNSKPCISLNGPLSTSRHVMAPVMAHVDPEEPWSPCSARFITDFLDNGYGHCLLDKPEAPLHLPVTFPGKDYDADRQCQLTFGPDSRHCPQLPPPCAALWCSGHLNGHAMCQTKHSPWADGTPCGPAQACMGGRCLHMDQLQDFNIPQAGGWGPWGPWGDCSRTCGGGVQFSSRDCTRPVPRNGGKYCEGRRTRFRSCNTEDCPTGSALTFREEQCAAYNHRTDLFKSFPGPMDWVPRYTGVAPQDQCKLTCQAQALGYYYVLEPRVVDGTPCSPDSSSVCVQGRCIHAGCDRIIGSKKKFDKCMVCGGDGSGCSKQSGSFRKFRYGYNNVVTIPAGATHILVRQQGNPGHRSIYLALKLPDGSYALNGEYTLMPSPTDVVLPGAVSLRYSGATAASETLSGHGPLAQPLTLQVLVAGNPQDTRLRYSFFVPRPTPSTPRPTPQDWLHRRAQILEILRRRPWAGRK
Nature of the test: Aggrecanase-1 FRET Assay. It counts as biochemical.

[1] abbreviates: rAgg1 5 μg/ml, substrate Abz-[…]-Dap(Dnp) 25 μM, 30° C., pH 7.5, read-out: IC50.

Where two headings read alike, the source gives them in different places.

Description: The percentage activity remaining in the presence of inhibitor is plotted as a function of inhibitor concentration and the IC50 value is determined by fitting the data to the following equation: % activity=100IC50/(I0+IC50).
The following protocol was used: • Fluorimeter was started and temperature set to 30° C., about 30 min before setting up the assay. The following reagents are used: • Buffer: 50 mM HEPES, pH 7.5, 100 mM NaCl, 5 mM CaCl2, 0.1% CHAPS, 5% glycerol. • rAgg1: 5 μg/ml (final concentration in the assay): • Substrate: Abz-[sequence]-Dap(Dnp) (Abz:o-aminobenzoyl; Dnp: 2,4 dinitrophenyl) (Anaspec Inc), stored at 4° C.). Make a stock at 2 mg/ml in 100% DMSO. […] Store unused 100% DMSO stock at −80° C. […] Make up inhibitors at 10× starting concentration in 100% DMSO. Perform serial dilutions (in duplicate) across the nunc plate in 100% DMSO; • Dilution plates: Nunc, polypropylene low binding (Nalgene) • Assay plate: Fluoronunc (Nalgene) • Fluorimeter: GeminiXS (Molecular Devices).
The assay is performed as follows (The plates are set up so that the final column (12) is used for controls. Total reaction volume is 100 μl. Each compound is assayed in duplicate, so 4 compounds are screened per plate):
1) Add buffer to the entire 96-well plate (30 μl/well).
Add 20 μl/well to all wells. Mix 6 times.
Mix 6 times. To wells 12A-F, add 10× controls (see reference compounds below).
The reaction is monitored for 30-40 min at 30° C. λex: 340 nm and λem: 420 nm). The fluorescence is linear during this time and the slope of the line (Vmax/sec) represents the initial reaction rate, υ. The maximal rate of cleavage of substrate is determined in the absence of inhibitor.
The percent inhibition of activity in the presence of inhibitor is calculated as follows:
The IC50 was obtained by fitting the initial rate, υ, or % inhibition at each concentration of inhibitor to the following equation in Excel. y=(a−d)/(1+C/IC50)^n)+d
This model describes a sigmoidal curve with an adjustable baseline, a. y is the % inhbition or initial rate of reaction, C is the concentration of inhibitor under test. a is the limiting response as C approaches zero. As C increases without bound y tends toward its lower limit, d. y is halfway between the lower and upper asymptotes when C=IC50. n is the Hill coefficient. The sign of n is positive when the response increases with increasing dose and is negative when the response decreases with increasing dose (inhibition).

Take `CC(C)[C@@H](NS(=O)(=O)c1ccc(-c2ccc(O)cc2)cc1C(F)(F)F)C(=O)O` [Example 12B, 2-(4′-Hydroxy-3-trifluoromethyl-biphenyl-4-sulfonylamino)-3-methyl-butyric acid]: the IC50 (as a rule, the concentration that gives 50% inhibition) under setting [1] worked out at 67000 nM. In the case of `CC(C)[C@@H](NS(=O)(=O)c1ccc(-c2ccc(OCc3ccc4ccccc4c3)cc2)cc1)C(=O)O` [Example 2C, D-3-Methyl-2-[4′-(naphthalen-2-ylmethoxy)-biphenyl-4-sulfonylamino]-butyric acid], the IC50 under setting [1] was 800 nM. As to `CC(C)[C@@H](NS(=O)(=O)c1ccc(-c2ccc(OC(=O)Nc3ccc(Oc4ccccc4)cc3)cc2)cc1)C(=O)O` [Example 6B, D-3-Methyl-2-[4′-(4-phenoxy-phenylcarbamoyloxy)-biphenyl-4-sulfonylamino]-butyric acid], the IC50 turned out to be 600 nM. In the case of `Cc1c(COc2ccc(-c3ccc(S(=O)(=O)N[C@@H](C(=O)O)C(C)C)cc3)cc2)oc2ccccc12` [Example 2A, D-3-Methyl-2-[4′-(3-methyl-benzofuran-2-ylmethoxy)-biphenyl-4-sulfonylamino]-butyric acid], the IC50 under setting [1] is 1000 nM. Still for that read-out and setting: in the case of `COc1cc(COc2ccc(-c3ccc(S(=O)(=O)N[C@@H](C(=O)O)C(C)C)cc3)cc2OC)cc(OC)c1` [Example 11B, 2-[4′-(3,5-Dimethoxy-benzyloxy)-3′-methoxy-biphenyl-4-sulfonylamino]-3-methyl-butyric acid] it was 16700 nM; in that of `CC(C)[C@@H](NS(=O)(=O)c1ccc(-c2ccc(O)cc2)cc1OC(F)(F)F)C(=O)O` [Example 12A, 2-(4′-Hydroxy-3-trifluoromethoxy-biphenyl-4-sulfonylamino)-3-methyl-butyric acid], 200000 nM. Consider `CC(C)[C@@H](NS(=O)(=O)c1ccc(-c2ccc(OC(=O)Nc3cc4ccccc4o3)cc2)cc1)C(=O)O` [Example 6S, N-[(4′-{[(1-benzofuran-2-ylamino)carbonyl]oxy}-1,1′-biphenyl-4-yl)sulfonyl]-D-valine], for which the IC50 stood at 4500 nM. Turning to `Cc1cc(OCc2ccc(-c3ccc(S(=O)(=O)N[C@@H](C(=O)O)C(C)C)cc3)cc2)c2ccccc2n1` [Example 1D, D-3-Methyl-2-[4′-(2-methyl-quinolin-4-yloxymethyl)-biphenyl-4-sulfonylamino]-butyric acid], the IC50 under setting [1] was 400 nM. As to `CC(C)[C@@H](NS(=O)(=O)c1ccc(-c2ccc(OC(=O)Nc3ccc4ccccc4c3)cc2)cc1)C(=O)O` [Example 6C, D-3-Methyl-2-[4′-(naphthalen-2-ylcarbamoyloxy)-biphenyl-4-sulfonylamino]-butyric acid], the IC50 came out at 1100 nM. Take `Cc1cc2ccccc2nc1OCc1ccc(-c2ccc(S(=O)(=O)N[C@@H](C(=O)O)C(C)C)cc2)cc1` [Example 1A, 3-Methyl-2-[4′-(3-methyl-quinolin-2-yloxymethyl)-biphenyl-4-sulfonylamino]-butyric acid]: the IC50 under setting [1] was 200 nM. Still for that read-out and setting: in the case of `CC(C)[C@@H](NS(=O)(=O)c1ccc(-c2ccc(OCc3ccccc3)cc2)cc1)C(=O)O` [Example 2D, D-2-(4′-Benzyloxy-biphenyl-4-sulfonylamino)-3-methyl-butyric acid] it was 5500 nM; in that of `CC(C)[C@@H](NS(=O)(=O)c1ccc(-c2ccc(COc3ccc(C(F)(F)F)cn3)cc2)cc1)C(=O)O` [Example 1B, 3-Methyl-2-[4-(5-trifluoromethyl-pyridin-2-yloxymethyl)-biphenyl-4-sulfonylamino]-butyric acid], 800 nM.

For the molecule `CC(C)[C@@H](NS(=O)(=O)c1ccc(-c2ccc(COc3cccc(C(=O)c4ccccc4)c3)cc2)cc1)C(=O)O` [Example 1H], under setting [1], the IC50 was 230 nM. On the same count and under the same terms, under `CC(C)[C@@H](NS(=O)(=O)c1ccc(-c2ccc(OCc3cc4ccccc4o3)cc2)cc1)C(=O)O` [Example 2B, D-2-[4′-(Benzofuran-2-ylmethoxy)-biphenyl-4-sulfonylamino]-3-methyl-butyric acid] stands 1500 nM; under `COc1cc(-c2ccc(S(=O)(=O)N[C@@H](C(=O)O)C(C)C)cc2)ccc1OCc1ccc2ccccc2c1` [Example 11A, 3-Methyl-2-[4′-(naphthalen-2-ylmethoxy)-3′-methoxy-biphenyl-4-sulfonylamino]-butyric acid], 8900 nM. `CC(C)[C@@H](NS(=O)(=O)c1ccc(-c2ccc(OC(=O)Nc3ccc(F)cc3)cc2)cc1)C(=O)O` [Example 6A, 2-[4′-(4-Fluoro-phenylcarbamoyloxy)-biphenyl-4-sulfonylamino]-3-methyl-butyric acid]: the half-maximal inhibitory concentration (IC50) stood at 3600 nM. On to `CC(=O)NCc1ccc(-c2ccc(S(=O)(=O)N[C@@H](C(=O)O)C(C)C)cc2)cc1` [Example 5A, D-2-[4′-(Acetylamino-methyl)-biphenyl-4-sulfonylamino]-3-methyl-butyric acid], for which the 50% inhibitory concentration (IC50) under setting [1] came to 400 nM. Same read-out and setting: under `CC(C)[C@@H](NS(=O)(=O)c1ccc(-c2ccc(OC(=O)c3cc4ccccc4o3)cc2)cc1)C(=O)O` [Example 7B, Benzofuran-2-carboxylic acid 4′-(1-carboxy-2-methyl-propylsulfamoyl)-biphenyl-4-yl ester] stands 345 nM; under `Cc1c(C(=O)Oc2ccc(-c3ccc(S(=O)(=O)N[C@@H](C(=O)O)C(C)C)cc3)cc2)oc2ccccc12` [Example 7A, D-3-Methyl-benzofuran-2-carboxylic acid 4′-(1-carboxy-2-methyl-propylsulfamoyl)-biphenyl-4-yl ester], 90 nM. On the same count and under the same terms, in the case of `CC(C)[C@@H](NS(=O)(=O)c1ccc(-c2ccc(COc3nc4ccccc4s3)cc2)cc1)C(=O)O` [Example 1F, 2-[4′-(Benzothiazol-2-yloxymethyl)-biphenyl-4-sulfonylamino]-3-methyl-butyric acid] it was 1500 nM. On to `CC(C)[C@@H](NS(=O)(=O)c1ccc(-c2ccc(COc3ccc4ccccc4n3)cc2)cc1)C(=O)O` [Example 1E], for which the IC50 under setting [1] was 600 nM. Same read-out and setting: in the case of `Cc1cc(COc2ccc(-c3ccc(S(=O)(=O)N[C@@H](C(=O)O)C(C)C)cc3)cc2)c2ccccc2n1` [Example 2K, D-3-Methyl-2-[4′-(2-methyl-quinolin-4-ylmethoxy)-biphenyl-4-sulfonylamino]-butyric acid] it was 500 nM.
